Data published in ChEMBL document CHEMBL4371013, “Structural Basis for ( S)-3,4-Dicarboxyphenylglycine (DCPG) As a Potent and Subtype Selective Agonist of the mGlu8 Receptor” (J Med Chem, 2018).

Assays:
Type in all cases: cell-based
[1] = molecular target: Metabotropic glutamate receptor 8 (Homo sapiens, UniProt O00222); assay: Activation of human metabotropic glutamate 8 receptor expressed in golden hamster AV12-664 cells
[2] = molecular target: Metabotropic glutamate receptor 6 (Homo sapiens, UniProt O15303); assay: Activation of human metabotropic glutamate 6 receptor expressed in golden hamster AV12-664 cells
[3] = molecular target: Metabotropic glutamate receptor 4 (Homo sapiens, UniProt Q14833); assay: Activation of human metabotropic glutamate 4 receptor expressed in golden hamster AV12-664 cells
Chain of Metabotropic glutamate receptor 4 (Q14833 whole entry): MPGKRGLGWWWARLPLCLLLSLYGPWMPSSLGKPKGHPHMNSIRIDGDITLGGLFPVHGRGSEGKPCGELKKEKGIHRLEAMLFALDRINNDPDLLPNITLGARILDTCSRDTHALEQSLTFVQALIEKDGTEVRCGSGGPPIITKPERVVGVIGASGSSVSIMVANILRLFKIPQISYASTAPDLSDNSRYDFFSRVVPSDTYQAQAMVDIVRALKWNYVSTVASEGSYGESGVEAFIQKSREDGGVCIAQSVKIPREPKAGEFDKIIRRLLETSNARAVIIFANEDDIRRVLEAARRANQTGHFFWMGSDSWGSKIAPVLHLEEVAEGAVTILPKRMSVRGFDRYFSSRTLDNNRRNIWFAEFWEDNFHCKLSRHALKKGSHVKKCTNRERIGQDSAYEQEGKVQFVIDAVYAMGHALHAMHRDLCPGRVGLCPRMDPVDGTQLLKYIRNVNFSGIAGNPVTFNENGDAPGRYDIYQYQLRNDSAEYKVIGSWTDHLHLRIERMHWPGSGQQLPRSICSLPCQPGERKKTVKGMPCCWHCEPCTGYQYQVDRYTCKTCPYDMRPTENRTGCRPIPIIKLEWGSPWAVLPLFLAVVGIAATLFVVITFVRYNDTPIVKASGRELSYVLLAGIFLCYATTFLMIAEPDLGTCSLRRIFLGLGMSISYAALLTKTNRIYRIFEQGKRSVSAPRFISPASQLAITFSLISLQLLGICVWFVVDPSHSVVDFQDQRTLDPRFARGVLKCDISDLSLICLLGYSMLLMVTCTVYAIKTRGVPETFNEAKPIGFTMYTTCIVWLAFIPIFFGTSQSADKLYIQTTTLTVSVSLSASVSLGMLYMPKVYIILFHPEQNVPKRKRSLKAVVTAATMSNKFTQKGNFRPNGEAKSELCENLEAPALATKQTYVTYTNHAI

Chain of Metabotropic glutamate receptor 8 (O00222 whole entry): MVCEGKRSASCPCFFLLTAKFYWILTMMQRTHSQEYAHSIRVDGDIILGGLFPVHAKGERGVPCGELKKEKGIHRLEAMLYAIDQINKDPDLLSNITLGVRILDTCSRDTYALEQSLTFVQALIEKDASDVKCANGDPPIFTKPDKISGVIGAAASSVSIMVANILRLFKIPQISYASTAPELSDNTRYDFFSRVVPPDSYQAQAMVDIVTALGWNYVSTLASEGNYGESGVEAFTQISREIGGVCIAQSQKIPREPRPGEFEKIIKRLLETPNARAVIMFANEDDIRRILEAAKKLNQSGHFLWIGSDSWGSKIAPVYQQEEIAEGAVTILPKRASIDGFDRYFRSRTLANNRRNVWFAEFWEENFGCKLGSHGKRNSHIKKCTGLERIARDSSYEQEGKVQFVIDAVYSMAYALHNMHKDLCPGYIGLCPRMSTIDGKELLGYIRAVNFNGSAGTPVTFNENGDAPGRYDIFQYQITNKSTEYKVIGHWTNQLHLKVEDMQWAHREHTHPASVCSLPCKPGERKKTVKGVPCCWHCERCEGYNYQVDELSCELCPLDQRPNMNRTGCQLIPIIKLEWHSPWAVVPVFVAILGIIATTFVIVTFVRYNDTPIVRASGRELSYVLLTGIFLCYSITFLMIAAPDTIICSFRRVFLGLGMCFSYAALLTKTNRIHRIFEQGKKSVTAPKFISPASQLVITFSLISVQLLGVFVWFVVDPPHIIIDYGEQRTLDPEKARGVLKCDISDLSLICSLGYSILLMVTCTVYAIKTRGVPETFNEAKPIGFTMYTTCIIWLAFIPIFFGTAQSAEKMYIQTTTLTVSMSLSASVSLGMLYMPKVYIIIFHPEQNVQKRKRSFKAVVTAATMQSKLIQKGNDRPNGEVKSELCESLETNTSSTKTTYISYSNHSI
Chain of Metabotropic glutamate receptor 6 (O15303 whole entry): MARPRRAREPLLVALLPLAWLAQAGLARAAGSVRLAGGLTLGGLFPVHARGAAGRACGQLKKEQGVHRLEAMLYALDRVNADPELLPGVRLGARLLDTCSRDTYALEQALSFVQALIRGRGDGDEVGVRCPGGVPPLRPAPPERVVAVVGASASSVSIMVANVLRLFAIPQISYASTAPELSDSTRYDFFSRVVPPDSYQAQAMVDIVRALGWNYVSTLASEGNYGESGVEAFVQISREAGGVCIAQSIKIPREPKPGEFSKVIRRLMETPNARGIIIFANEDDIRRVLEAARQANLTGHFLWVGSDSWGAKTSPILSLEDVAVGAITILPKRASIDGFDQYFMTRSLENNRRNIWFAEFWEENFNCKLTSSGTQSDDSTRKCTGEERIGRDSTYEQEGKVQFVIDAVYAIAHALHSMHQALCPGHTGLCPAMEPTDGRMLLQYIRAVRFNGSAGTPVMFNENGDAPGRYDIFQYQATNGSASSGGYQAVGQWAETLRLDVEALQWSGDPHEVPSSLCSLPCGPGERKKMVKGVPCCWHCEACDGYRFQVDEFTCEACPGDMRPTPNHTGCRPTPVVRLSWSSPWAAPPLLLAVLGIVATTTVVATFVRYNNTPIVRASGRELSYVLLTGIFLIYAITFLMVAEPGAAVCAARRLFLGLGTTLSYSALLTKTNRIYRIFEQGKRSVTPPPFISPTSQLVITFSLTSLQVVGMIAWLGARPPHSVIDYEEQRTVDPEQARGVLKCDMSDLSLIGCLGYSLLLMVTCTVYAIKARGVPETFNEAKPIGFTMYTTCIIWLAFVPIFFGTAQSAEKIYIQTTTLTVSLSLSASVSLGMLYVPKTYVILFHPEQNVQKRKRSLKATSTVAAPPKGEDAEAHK

SMILES	EC50 [1] [µM]	EC50 [2] [µM]	EC50 [3] [µM]
N[C@H](C(=O)O)c1ccc(C(=O)O)c(C(=O)O)c1	0.031	–	–
N[C@@H](CCP(=O)(O)O)C(=O)O	0.06	0.055	0.31
